Assay [1] has as its system HDAC. The settings on record: cited from earlier work.
Assay [2] relates to HDAC. As to the kind of experiment: HDAC fluorometric assay, single-point percent inhibition (medium fidelity). Format: biochemical. As to conditions: for pIC50: first iteration, assuming binding follows the Hill equation and is noncooperative, assay run at 20 μM scale, read-out: IC50 corresponding to single point inhibition. The source says:
In the first iteration, the experimental design algorithm recommended that 3,385 candidates be docked (39% of budget), 261 candidates screened for single-point percent inhibition (61% of budget), and no candidates be manually synthesized for full dose–response characterization (0% of budget). The total budget was 100.0 with the same experiment cost structure of 0.01 for docking, 0.2 for single-point, and 1.0 for dose response curve. Docking was automatically performed with DiffDock, and the resulting conformers scored based on their binding to the catalytic zinc ion and overlap with bound known inhibitors from X-ray crystallography. For the candidates selected for automatic synthesis, the reactions were batched by temperature into well plates to be run in parallel on the automated platform. With a maximum allowance of 6 well plates, the platform attempted to synthesize 79 candidates, with an average of 2.4 reaction steps required for each candidate. Based on observation of the expected mass-to-charge ratio (m/z) during automatic HPLC-MS analysis, 40 of the syntheses were successful. The successful syntheses were automatically purified with semipreparative HPLC, the concentration of the inhibitor was automatically estimated,[47] and the fluorometric inhibition assay was automatically run at 20 μM scale. The structures, synthesis plans, assay scores, and statistics for the attempted molecules are in the SI.

Assay [3] relates to HDAC. As to the kind of experiment: HDAC fluorometric assay, dose-response curve (high fidelity). The settings on record: read-out: IC50 (Dose-Response Curve), manually synthesized molecules.
Protocol: HDAC inhibition is automatically measured in a plate reader with a fluorometric assay (Abcam ab283378). In the plate-based assay, the liquid handler first dispenses individual purified products in dimethyl sulfoxide into each well, then adds buffer containing HDAC and a peptide substrate containing an acetylated lysine residue. The solution is agitated and incubated for 30 min at 37 °C, then a developer, which reacts with primary amines to form a fluorescent product, is dispensed and incubated for another 30 min. After the second incubation, the plate is transferred to the plate reader to measure fluorescence corresponding to uninhibited HDAC activity. The platform handles all aspects of the assay; dispensing reagents, timing incubation, transferring plates, preparing positive and negative controls, and analyzing fluorescent readouts without human input.

pIC50: −log10 of the molar value. Read-outs that look alike come from different tables or passages of the source.

With `CCCC(CCC)C(=O)O` [valproate], the pIC50 in assay [1] (FDA approved nonhydroxamate inhibitor) is 3.74.

As to `O=[N+]([O-])c1ccc(N(S(=O)(=O)c2cccc3cccnc23)S(=O)(=O)C(F)(F)F)cc1` [c], in assay [2], the pIC50 is 5.14.

In the case of `O=C1CCc2cc(Nn3cnnc3)ccc21` [5-((1,2,4-triazol-4-yl)amino)-indan-1-one], the “inhibition in the single-point assay” value in assay [2] (second iteration, automated synthesis and assay) was 11%.

`CC(/C=C/C(=O)NO)=C\[C@@H](C)C(=O)c1ccc(N(C)C)cc1` [trichostatin A]: in assay [3], the pIC50 was 8.74.

As to `CC(C)(C)N(S(C)(=O)=O)S(=O)(=O)c1cccc(Br)c1` [a], the pIC50 in assay [2] is 5.94.

On to `Cc1ccc(S(=O)(=O)N(c2ccc([N+](=O)[O-])cc2)C2CCC2)cc1` [b], for which, in assay [2], the pIC50 was 5.48.

Regarding `CCN(CC)Cc1ccc2cc(COC(=O)Nc3ccc(C(=O)NO)cc3)ccc2c1` [givinostat], the pIC50 in assay [1] (FDA approved hydroxamate) was 6.08.

(Values after paper PMC11869128, “Bayesian Optimization over Multiple Experimental Fidelities Accelerates Automated Discovery of Drug Molecules” (ACS Central Science, 2025).)
